Results published in paper PMC3242765, “Inhibitors of Alphavirus Entry and Replication Identified with a Stable Chikungunya Replicon Cell Line and Virus-Based Assays” (PLoS ONE, 2011).
“And” between values parts separate entries of the source, which are not always exact repeats. Equal entries are not always repeated. Structures can show the parent of a compound that is named as a salt. Where two headings read alike, the source gives them in different places.

Columns and labels:
BHK cells = test: Cell viability ATP assay, BHK cells; type: cell-based, hamster; conditions: read-out: Cell viability IC50
SFV-Rluc [1] = test: microbe, parasite or virus in culture; conditions: Semliki Forest virus, BHK, 14 h, read-out: SFV IC50
CHIKV replicon = test: microbe, parasite or virus in culture; type: cell-based, Chikungunya virus (CHIKV)
SFV-Rluc [2] = conditions: for IC50: read-out: SFV IC50
SFV = test: Viral yield analysis using a plaque assay; type: cell-based, Semliki Forest virus (SFV); conditions: BHK cells, MOI 0.01, 50 µM compound, 16 h; untreated control 1.4×10^9 PFU/ml
[3] = Mesocricetus auratus, BHK, 48 h
[4] = ATP assay, 48 h exposure of BHK cells

Molecule	CHIKV replicon % left (CHIKV replicon)	SFV replication % left (surviving fraction, remaining percentage of SFV replication) (SFV-Rluc [2])	other results
CC(=O)c1ccc(O)cc1 [4-Hydroxyacetophenone]	94.5%	29.4%	IC50 (BHK cells; [3]): 164 µM; IC50 (SFV-Rluc [1]): 21.1 µM; SI (selectivity index) (SFV-Rluc [2]): 7.8
CCN(CC)c1ccc2cc(C(=O)c3cccs3)c(=O)oc2c1 [7-Diethylamino-3-thenoylcoumarin]	36.9%	15.6%	IC50 (BHK cells; [4]): 39.1 µM; IC50 (SFV-Rluc [2]): 5.1 µM
O=c1cc(-c2ccccc2)oc2c1ccc1ccccc12 [Alphanaphtoflavone]	–	–	IC50 (BHK cells; [4]): > 200 µM; IC50 (SFV-Rluc [2]): 24.1 µM
CN(C)CCC=C1c2ccccc2COc2ccccc21 [Doxepin]	–	–	SFV yield (SFV): 3.6×10^8 PFU/ml
CC1=CC(=O)c2ccccc2C1=O [Menadione]	–	–	IC50 (BHK cells; [3]): 21.9 µM; IC50 (SFV-Rluc [1]): 7.8 µM; SI (selectivity index) (SFV-Rluc [2]): 2.8
CCCOC(=O)c1cc(O)c(O)c(O)c1 [Propyl gallate]	–	–	IC50 (BHK cells; [3]): 103 µM; IC50 (SFV-Rluc [1]): 17.9 µM; SI (selectivity index) (SFV-Rluc [2]): 5.8
C[C@@H]1O[C@@H](Oc2c(-c3ccc(O)c(O)c3)oc3cc(O)cc(O)c3c2=O)[C@H](O)[C@H](O)[C@H]1O [Quercitrin]	–	–	IC50 (BHK cells; [3]): > 200 µM; IC50 (SFV-Rluc [1]): 23.7 µM; SI (selectivity index) (SFV-Rluc [2]): >8.4
CCc1nnc(NS(=O)(=O)c2ccc(N)cc2)s1 [Sulfaethidole]	100.4%	106.4%	–
[H]/N=C(/N)NS(=O)(=O)c1ccc(N)cc1 [Sulfaguanidine]	62.1%	63.5%	–
Cc1ccnc(NS(=O)(=O)c2ccc(N)cc2)n1 [Sulfamerazine]	91.1%	83.8%	–
COc1cnc(NS(=O)(=O)c2ccc(N)cc2)nc1 [Sulfameter]	79.2%	99.0%	–
Cc1cc(C)nc(NS(=O)(=O)c2ccc(N)cc2)n1 [Sulfamethazine]	100.5%	91.7%	–
Cc1nnc(NS(=O)(=O)c2ccc(N)cc2)s1 [Sulfamethizole]	79.1%	100.4%	–
Cc1cc(NS(=O)(=O)c2ccc(N)cc2)no1 [Sulfamethoxazole]	100.5%	77.5%	–
COc1ccc(NS(=O)(=O)c2ccc(N)cc2)nn1 [Sulfamethoxypyridazine]	82.0%	110.0%	–
Cc1nnc(NS(=O)(=O)c2ccc(N)cc2)s1 [Sulfamethylthiadiazole]	92.1%	89.6%	–
Cc1nc(NS(=O)(=O)c2ccc(N)cc2)oc1C [Sulfamoxole]	80.2%	83.0%	–
Nc1ccc(S(N)(=O)=O)cc1 [Sulfanilamide]	100.5%	64.2%	–
NC(=O)NS(=O)(=O)c1ccc(N)cc1.O [Sulfaninyl urea hydrate]	92.8%	120.2%	–

Molecule	CHIKV replicon % left (CHIKV replicon)	SFV replication % left (surviving fraction, remaining percentage of SFV replication) (SFV-Rluc [2])	other results
Cc1cnc(NS(=O)(=O)c2ccc(N)cc2)nc1 [Sulfaperine]	100.8%	127.8%	–
Nc1ccc(S(=O)(=O)Nc2ccccn2)cc1 [Sulfapyridine]	79.9%	95.0%	–
Nc1ccc(S(=O)(=O)Nc2nccs2)cc1 [Sulfathiazole]	78.5%	138.1%	–
Cc1noc(NS(=O)(=O)c2ccc(N)cc2)c1C [Sulfisoxazole]	104.5%	91.4%	–
CCS(=O)(=O)C(C)(C)S(=O)(=O)CC [Sulfonmethane]	102.7%	86.6%	–
COc1cc(C(=O)O)cc(OC)c1O [Syringic acid]	54.4%	61.1%	–
CC(C)(C)NCC(O)COc1ccc(NC(=O)NC2CCCCC2)cc1 (centres unmarked) [Talinolol]	91.8%	76.9%	–
CN1C(=O)C(O)N=C(c2ccccc2)c2cc(Cl)ccc21 (centres unmarked) [Temazepam]	79.5%	91.5%	–
CC(C)(C)NCC(O)c1cc(O)cc(O)c1.CC(C)(C)NCC(O)c1cc(O)cc(O)c1.O=S(=O)(O)O (centres unmarked) [Terbutaline hemisulfate salt]	87.2%	97.5%	–
CCCCNc1ccc(C(=O)OCCN(C)C)cc1 [Tetracaine hydrochloride]	71.1%	102.8%	–
Cn1cnc2c1c(=O)[nH]c(=O)n2C [Theobromine]	70.2%	112.1%	–
Cn1c(=O)c2[nH]cnc2n(C)c1=O [Theophylline]	100.4%	87.8%	–
Cc1ncc(C[n+]2csc(CCO)c2C)c(N)n1.O=[N+]([O-])[O-] [Thiamine mononitrate]	85.0%	95.2%	–
Cc1ccc(C(C)C)c(O)c1 [Thymol]	71.1%	42.0%	–
CC(C)(C)NC[C@H](O)COc1nsnc1N1CCOCC1 [Timolol maleate]	100.6%	129.1%	–
CCS(=O)(=O)CCn1c([N+](=O)[O-])cnc1C [Tinidazole]	100.5%	104.1%	–
Cl.c1ccc(CC2=NCCN2)cc1 [Tolazoline, hydrochloride]	102.1%	76.0%	–
CCCCNC(=O)NS(=O)(=O)c1ccc(C)cc1 [Tolbutamide]	100.9%	80.2%	–
Cc1c(Cl)cccc1Nc1ccccc1C(=O)O [Tolfenamic acid]	108.2%	80.1%	–

Molecule	CHIKV replicon % left (CHIKV replicon)	SFV replication % left (surviving fraction, remaining percentage of SFV replication) (SFV-Rluc [2])	other results
N[C@@H]1C[C@H]1c1ccccc1.N[C@H]1C[C@@H]1c1ccccc1.O=S(=O)(O)O [Tranylcypromine sulfate]	94.4%	94.8%	–
Nc1nc(N)c2nc(-c3ccccc3)c(N)nc2n1 [Triamterene]	71.2%	93.0%	–
Cc1nnc2n1-c1ccc(Cl)cc1C(c1ccccc1Cl)=NC2 [Triazolam]	40.1%	76.5%	–
CC(CN(C)C)CN1c2ccccc2Sc2ccccc21.CC(CN(C)C)CN1c2ccccc2Sc2ccccc21.O=C(O)C(O)C(O)C(=O)O (centres unmarked) [Trimeprazine tartrate]	100.5%	120.4%	–
O=c1ccc2ccc(O)cc2o1 [Umbelliferone]	106.5% and 100.7%	93.1% and 78.4%	–
COc1cc(C(=O)O)ccc1O [Vanillic acid]	44.3%	53.4%	–
COc1cc(C=O)ccc1O [Vanillin]	71.7%	47.9%	–
COc1c2occc2cc2ccc(=O)oc12 [Xanthotoxin]	95.4%	86.7%	–
Cc1cc(C(C)(C)C)cc(C)c1CC1=NCCN1 [Xylometazoline]	78.2%	94.2%	–
CCCOC(=O)c1cc(O)c(O)c(O)c1 [n-Propyl gallate]	39.4%	33.6%	–
O=C(O)/C=C/c1ccccc1O [o-Coumaric acid]	98.6%	77.6%	–
Nc1ccc(C(=O)O)cc1 [p-Aminobenzoic acid]	105.4%	56.5%	–
CCCCNc1ccc(C(=O)OCCN(C)C)cc1 [p-Butylaminobenzoyldimethylaminoethanol]	77.1%	45.4%	–
CN[C@H](C)[C@@H](O)c1ccc(O)cc1 [p-Hydroxyephedrine]	100.6%	94.4%	–
(-)-Epicatechin gallate	100.5%	94.8%	–
Benzalkonium chloride	-0.5%	0.0294%	–
Saccharin sodium	81.5%	105.0%	–
Tannic acid	82.0%	41.8%	–
